Results taken from patent US10233180B2, “Substituted nitrogen-containing heterocyclic derivatives, pharmaceutical compositions comprising the same and applications of antitumor thereof” (ZHEJIANG UNIVERSITY, priority 2014, dated 2019).
Read-outs that look alike come from different tables or passages of the source.

Legend:
Akt1 = target: T1, Akt1 (Homo sapiens, UniProt P31749); test: AKT1/PKBα KinEASE FP Fluorescein Green Assay (fluorescence polarization kinase kit); assay type: biochemical; details: 1 h reaction, read-out: Inhibitory activities against Akt1 (IC50)
T1 construct: purchased 32-021
Experimental: Second, method for determining the inhibitory activities of substituted nitrogen-containing heterocyclic derivatives in the present invention against Akt1 enzyme:
The inhibitory activities of compounds against AKT1/PKBα are determined by using AKT1/PKBα KinEASE™ FP Fluorescein Green Assay (Green fluorescence detection system of Kinase).
Principle adopted by the fluorescence polarization detection of protein kinase B is a competitive reaction: the phosphorylated tracers labeled with fluorescence will compete with unlabeled phosphorylated products produced by reacting with protein kinase B to combine anti-serine antibodies. […] However, in the reaction mixture containing phosphorylated products, fewer tracers will combine with antibodies (fluorescent tracers are replaced from the antibodies), and signals sent our occur depolarizing. Therefore, the change of polarization is directly related to the activity of protein kinase B in the reaction.
Each of 0.25 μl of compounds with a concentration of 50 μM and the positive control are added to a 384-well plate at room temperature, and each sample is provided with three parallel wells, and then 10 μl of STK Substrate 3 Working Solution, 5 μl of AKT1/PKBα Working Solution, 10 μl of ATP Working Solution are added to each sample respectively, the mixtures are slightly vibrated and shaked for a few minutes. Reaction is carried out just after the adding 10 μl of ATP Working Solution, from this time, reacting for 1 h. After 1 h, 5 μl of STK Stop Mix and 5 μl of STK Antibody Mix are added to each sample respectively to stop the reaction. The samples are maintained for 4 h at room temperature after adding is completed, the polarization values of samples are determined by fluorescence polarization of Microplate Reader (Detection of the signals is valid within 24 h), the inhibitory rate of compounds against the enzyme is calculated by polarization value, and thereby IC50 is calculated.
Experiment is set up four control groups at the same time, which are Buffer Control Wells, Tracer Control Wells, No Enzyme Wells and blank control of dimethyl sulfoxide, respectively. Thus obtained data are used to calculate the inhibitory rate (the preparation methods of above various solution required for determining the activities of compounds against enzyme refer to the specification of the kit of AKT1/PKBα KinEASE™ FP Fluorescein Green Assay Catalog #32-021).

[1] = tested on: Human ovarian cancer cell strain OVCAR-8; test: MTT assay, inhibition of tumor cell growth in vitro, 72 h; assay type: cell-based; details: OVCAR-8, MTT, read-out: Antitumor proliferative activities of tumor cell (IC50, μM) OVCAR-8
Experimental: (§1) First, inhibitory activity on tumor proliferation in vitro is determined and the structure activity relationship is preliminarily studied, in which different solid tumor cell strains are selected for determining the antitumor activities in vitro of the synthesized compounds.
(§2) Cell strains: Human ovarian cancer cell strain (OVCAR8), colon adenocarcinoma cell strain (HCT-116)
Medium: OVCAR8: RPMI 1640+Fetal Bovine Serum
(§3) Preparing method of medicines: Dissolving the medicine in DMSO to make a 50 mM stock solution, and diluting it according to a certain ratio to obtain 5 different concentrations.
(§4) Two selected tumor cells OVCAR8 and HCT-116 are incubated at 37° C. in a 5% CO2 incubator, which are subcultured when cells grow up to a density of 70˜90% (adherent cells are subcultured after digesting by Duck's EDTA) for later experiments.
(§5) Compounds are dissolved and diluted by dimethyl sulfoxide (DMSO), and tumor cells OVCAR8 and HCT-116 are seeded in a 96-well plate at a density of 4000 cells/200 μl/well, 1 μl of the compounds are added to each well with the final concentration of 50 μM, 10 μM, 2 μM, 0.4 μM and 0.08 μM, which is incubated for 72 h at 37° C. in a 5% CO2 incubator with DMSO (1%) as blank control.
(§6) The calculating formula of cell inhibitory rate is: cell inhibitory rate %=(the OD value of the control group−the OD value of the medication group)/the OD value of the control group×100%, the half maximal inhibitory concentration (IC50) is obtained by Bliss method.

[2] = tested on: human colon cancer cell strain HCT-116; test: as above; assay type: cell-based; details: HCT-116, MTT, read-out: Antitumor proliferative activities of tumor cell (IC50, μM) HCT-116 (converted)
Experimental: as §1, §2
HCT-116: RPMI 1640+Fetal Bovine Serum
as §3, §4, §5, §6

T1 sequence (P31749 whole entry): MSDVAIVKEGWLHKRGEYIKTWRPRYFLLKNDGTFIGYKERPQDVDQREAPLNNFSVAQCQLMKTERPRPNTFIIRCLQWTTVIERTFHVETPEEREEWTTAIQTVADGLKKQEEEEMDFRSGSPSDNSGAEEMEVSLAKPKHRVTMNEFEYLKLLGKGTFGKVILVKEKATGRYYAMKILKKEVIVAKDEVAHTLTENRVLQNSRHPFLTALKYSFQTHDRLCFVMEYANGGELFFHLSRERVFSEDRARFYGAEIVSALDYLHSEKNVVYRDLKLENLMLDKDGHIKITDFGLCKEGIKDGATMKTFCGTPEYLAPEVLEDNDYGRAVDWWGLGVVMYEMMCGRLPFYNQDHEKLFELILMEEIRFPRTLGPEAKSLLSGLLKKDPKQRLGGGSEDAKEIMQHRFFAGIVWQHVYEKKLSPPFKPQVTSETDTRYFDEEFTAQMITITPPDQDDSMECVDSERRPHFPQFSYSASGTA

Row | Molecule | IC50 (Akt1) [µM] | IC50 ([1]; Homo sapiens) [µM] | IC50 ([2]; Homo sapiens) [µM] | IC50 [1] [µM] | IC50 [2] [µM]
1 | 5-ethyl-1-methyl-4-(4-ethyl-1-methyl-1H-pyrazol-5-yl)-N-(3,4-trans-4-(piperidin-3-yl)piperidin-3-yl)-1H-pyrrole-2-formamide [Compound 17] | 0.028 |  |  | 1.43 | 3.4
2 | Cc1nc(C(=O)N[C@H]2CNCC[C@@H]2C2CCCNC2)ccc1-c1c(Br)cnn1C (mixture of isomers) [Compound 59, 6-methyl-5-(4-bromo-1-methyl-1H-pyrazol-5-yl)-N-(3,4-trans-4-(piperidin-3-yl)piperidin-3-yl)pyridinyl-2-formamide] | 0.142 | 7.88 | 8.33 |  | 
3 | Cn1ncc(Cl)c1-c1cc(C(=O)N[C@H]2CNCC[C@@H]2c2ccc(Cl)cc2)oc1Cl (racemic) [Compound 2, 5-chloro-4-(4-chloro-1-methyl-1H-pyrazol-5-yl)-N-(3,4-trans-4-(4-chlorphenyl)piperidin-3-yl)furan-2-formamide] | 0.099 | 6.45 | 1.41 |  | 
4 | Cc1sc(C(=O)N[C@H]2CNCC[C@@H]2c2ccc(F)c(F)c2)cc1-c1c(Cl)cnn1C (racemic) [Compound 5, 5-methyl-4-(4-chloro-1-methyl-1H-pyrazol-5-yl)-N-(3,4-trans-4-(3,4-difluorophenyl)piperidin-3-yl)thiophene-2-formamide] | 0.121 | 14.3 | 6.8 |  | 
5 | CCc1sc(C(=O)N[C@H]2CNCC[C@@H]2c2cnc3ccccc3c2)cc1-c1c(C(C)C)cnn1C (racemic) [Compound 9] | 0.088 | 0.94 | 2.35 |  | 
6 | Cn1nccc1-c1coc(C(=O)N[C@H]2CNCC[C@@H]2c2ccc(F)c(F)c2)c1 (racemic) [Compound 21, 4-(1-methyl-1H-pyrazol-5-yl)-N-(3,4-trans-4-(3,4-difluorophenyl)piperidin-3-yl)furan-2-formamide] | 0.119 | 10.7 | 21 |  | 
7 | Cn1ncc(Br)c1-c1coc(C(=O)N[C@H]2CNCC[C@@H]2c2ccccc2)c1 (racemic) [Compound 22, 4-(4-bromo-1-methyl-1H-pyrazol-5-yl)-N-(3,4-trans-4-phenylpiperidin-3-yl) furan-2-formamide] | 0.108 | 7.89 | 12.2 |  | 
8 | Cn1ncc(Cl)c1-c1coc(C(=O)N[C@H]2CNCC[C@@H]2c2ccc(F)c(F)c2)c1 (racemic) [Compound 25, 4-(4-chloro-1-methyl-1H-pyrazol-5-yl)-N-(3,4-trans-4-(3,4-difluorophenyl)piperidin-3-yl)furan-2-formamide] | 0.238 | 21.4 | 3.19 |  | 
9 | NC1(C(=O)N[C@@H](CCO)c2ccc(Cl)cc2)CCN(c2nc[nH]c3nccc2-3)CC1 [AZD5363, reference compound] |  |  |  | 7.27 | 5.2

More lines, main results first:

Row | IC50 (Akt1) [µM] | IC50 ([1]; Homo sapiens) [µM] | IC50 ([2]; Homo sapiens) [µM] | Molecule | IC50 [1] [µM] | IC50 [2] [µM]
10 | 0.072 | 1.34 | 3.98 | Cn1nccc1-c1coc(C(=O)N[C@H]2CNCC[C@@H]2c2ccccc2)c1 (racemic) [Compound 1, 4-(1-methyl-1H-pyrazol-5-yl)-N-(3,4-trans-4-phenylpiperidin-3-yl)furan-2-formamide] |  | 
11 | 0.043 | 13 | 8.9 | Cn1ncnc1-c1cc(C(=O)N[C@H]2CNCC[C@@H]2c2ccc(C(F)(F)F)cc2)oc1Br (racemic) [Compound 3, 5-bromo-4-(1-methyl-1H-1,2,4-triazol-5-yl)-N-(3,4-trans-4-(4-trifluoromethylphenyl)piperidin-3-yl)furan-2-formamide] |  | 
12 | 0.048 | 5.19 | 15.6 | CCc1c(-c2ncnn2C)c(Br)n(C)c1C(=O)N[C@H]1CNCC[C@@H]1c1cccc(C(F)(F)F)c1 (racemic) [Compound 4, 5-bromo-3-ethyl-1-methyl-4-(1-methyl-1H-1,2,4-triazol-5-yl)-N-(3,4-trans-4-(3-trifluoromethylphenyl)piperidin-3-yl)-1H-pyrrole-2-formamide] |  | 
13 | 0.032 | 3.68 | 10.8 | Cc1[nH]c(C(=O)N[C@H]2CNCC[C@@H]2c2ccncc2)cc1-c1c(Br)cnn1C (racemic) [Compound 6, 5-methyl-4-(4-bromo-1-methyl-1H-pyrazol-5-yl)-N-(3,4-trans-4-(pyridin-4-yl)piperidin-3-yl)-1H-pyrrole-2-formamide] |  | 
14 | 0.062 | 3.88 | 8.3 | Cc1cccc([C@H]2CCNC[C@@H]2NC(=O)c2cc(Cl)c(-c3ncnn3C)o2)c1 (racemic) [Compound 7, 4-chloro-5-(1-methyl-1H-1,2,4-triazol-5-yl)-N-(3,4-trans-4-(3-methylphenyl)piperidin-3-yl)furan-2-formamide] |  | 
15 | 0.026 | 6.57 | 3.31 | Cc1[nH]c(C(=O)N[C@H]2CNCC[C@@H]2c2cccc(C#N)c2)cc1-c1c(Br)cnn1C (racemic) [Compound 10, 5-methyl-4-(1-methyl-4-bromo-1H-pyrazol-5-yl)-N-(3,4-trans-4-(3-cyanophenyl)piperidin-3-yl)-1H-pyrrole-2-formamide] |  | 
16 | 0.082 | 9.83 | 4.56 | Cn1nccc1-c1coc(C(=O)N[C@H]2CNCC[C@@H]2c2ccccc2)n1 (racemic) [Compound 19, 4-(1-methyl-1H-pyrazol-5-yl)-N-(3,4-trans-4-phenylpiperidin-3-yl)oxazole-2-formamide] |  | 
17 | 0.012 | 9.91 | 2.11 | Cc1sc(C(=O)N[C@H]2CNCC[C@@H]2c2ccc(F)c(F)c2)nc1-c1c(Cl)cnn1C (racemic) [Compound 20, 4-(4-chloro-1-methyl-1H-pyrazol-5-yl)-N-(3,4-trans-4-(3,4-difluorophenyl)piperidin-3-yl)-5-methylthiazole-2-formamide] |  | 
18 | 0.045 | 1.22 | 3.78 | Cn1ncc(Cl)c1-c1coc(C(=O)N[C@H]2CNCC[C@@H]2c2ccc(Cl)cc2)c1 (racemic) [Compound 23, 4-(4-chloro-1-methyl-1H-pyrazol-5-yl)-N-(3,4-trans-4-(4-chlorphenyl)piperidin-3-yl)furan-2-formamide] |  | 
19 | 0.018 | 0.98 | 2.9 | Cn1ncc(Cl)c1-c1coc(C(=O)N[C@H]2CNCC[C@@H]2c2ccc(C(F)(F)F)cc2)c1 (racemic) [Compound 24, 4-(4-chloro-1-methyl-1H-pyrazol-5-yl)-N-(3,4-trans-4-(4-trifluoromethylphenyl)piperidin-3-yl)furan-2-formamide] |  | 
20 | 0.034 | 4.89 | 2.16 | Cn1ncc(Br)c1-c1coc(C(=O)N[C@H]2CNCC[C@@H]2c2ccc(Cl)cc2)c1 (racemic) [Compound 26, 4-(4-bromo-1-methyl-1H-pyrazol-5-yl)-N-(3,4-trans-4-(4-chlorphenyl)piperidin-3-yl)furan-2-formamide] |  | 
21 | 0.017 | 1.82 | 5.89 | Cn1ncc(Br)c1-c1coc(C(=O)N[C@H]2CNCC[C@@H]2c2ccc(C(F)(F)F)cc2)c1 (racemic) [Compound 27, 4-(4-bromo-1-methyl-1H-pyrazol-5-yl)-N-(3,4-trans-4-(4-trifluoromethylphenyl)piperidin-3-yl)furan-2-formamide] |  | 
